Experimental data as given in patent US12404239B2, “Modulators of BCL6 as ligand directed degraders” (Celgene Corporation, priority 2022, dated 2025).

target: T1, BCL6 (Homo sapiens, UniProt P41182); test: BCL6_HiBiT degradation assay (2 h); assay type: cell-based; settings: DHL-4_BCL6_HiBiT cells, read-out: YCon (% remaining maximal effect)
T1 construct: HiBiT-tag knocked into endogenous BCL6 locus using CRISPR; endogenous in cells; host or cells: DHL-4_BCL6_HiBiT cells (CRISPR knock-in)
Outline: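 DHL-4 cells carrying CRISPR HiBiT knock-in at endogenous BCL6, treated 2 h at 37 °C with 10-point 3-fold dilutions from 1-10 μM. BCL6 level read by Nano-Glo HiBiT lytic luminescence normalized to DMSO; four-parameter fit gives degradation EC50 and Yconstant (% remaining at maximal effect).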

Row | Compound | Percent BCL6 remaining at maximal degradation (Ycon) [%]
1 | C[C@@H]1CN(c2ccc3c(C4CCC(=O)NC4=O)nn(C)c3c2)C[C@H](C)N1c1ncc(Cl)c(Nc2ccc3c(c2)CC(=O)N3C)n1 (stereo partly drawn) [Example 30, 3-(6-((3R,5S)-4-(5-chloro-4-((1-methyl-2-oxoindolin-5-yl)amino)pyrimidin-2-yl)-3,5-dimethylpiperazin-1-yl)-1-methyl-1H-indazol-3-yl)piperidine-2,6-dione] | > 60
2 | CN1C(=O)Cc2cc(Nc3nc(N4CCCN(c5ccc6c(C7CCC(=O)NC7=O)nn(C)c6c5)CC4)ncc3Cl)ccc21 (centres unmarked) [Example 32, 3-(6-(4-(5-chloro-4-((1-methyl-2-oxoindolin-5-yl)amino)pyrimidin-2-yl)-1,4-diazepan-1-yl)-1-methyl-1H-indazol-3-yl)piperidine-2,6-dione] | > 60
3 | CN1C(=O)Cc2cc(Nc3nc(N4CC[C@@H](Nc5ccc6c(C7CCC(=O)NC7=O)nn(C)c6c5)[C@H](O)C4)ncc3Cl)ccc21 (stereo partly drawn) [Example 33, 3-(6-(((3R,4R)-1-(5-chloro-4-((1-methyl-2-oxoindolin-5-yl)amino)pyrimidin-2-yl)-3-hydroxypiperidin-4-yl)amino)-1-methyl-1H-indazol-3-yl)piperidine-2,6-dione] | < 20
4 | CN1C(=O)Cc2cc(Nc3nc(N4CCN(c5ccc6c(C7CCC(=O)NC7=O)nn(C)c6c5)CC4)ncc3Cl)ccc21 (centres unmarked) [Example 35, 3-[6-[4-[5-chloro-4-[(1-methyl-2-oxo-indolin-5-yl)amino]pyrimidin-2-yl]piperazin-1-yl]-1-methyl-indazol-3-yl]piperidine-2,6-dione] | > 60
5 | CC1C(=O)N(c2ccc3c(C4CCC(=O)NC4=O)nn(C)c3c2)CCN1c1ncc(Cl)c(Nc2ccc3c(c2)CC(=O)N3C)n1 (centres unmarked) [Example 38, 3-(6-(4-(5-chloro-4-((1-methyl-2-oxoindolin-5-yl)amino)pyrimidin-2-yl)-3-methyl-2-oxopiperazin-1-yl)-1-methyl-1H-indazol-3-yl)piperidine-2,6-dione] | > 60
6 | CC1CN(c2ccc3c(C4CCC(=O)NC4=O)nn(C)c3c2)C(=O)CN1c1ncc(Cl)c(Nc2ccc3c(c2)CC(=O)N3C)n1 (centres unmarked) [Example 39, 3-(6-(4-(5-chloro-4-((1-methyl-2-oxoindolin-5-yl)amino)pyrimidin-2-yl)-5-methyl-2-oxopiperazin-1-yl)-1-methyl-1H-indazol-3-yl)piperidine-2,6-dione] | > 60
7 | Cn1nc(C2CCC(=O)NC2=O)c2ccc(NC3CCN(c4ncc(Cl)c(Nc5ccc6c(c5)CC(=O)N6CCO)n4)CC3)cc21 (centres unmarked) [Example 41, 3-[6-[[1-[5-chloro-4-[[1-(2-hydroxyethyl)-2-oxo-indolin-5-yl]amino]pyrimidin-2-yl]-4-piperidyl]amino]-1-methyl-indazol-3-yl]piperidine-2,6-dione] | 20 to 60
8 | CN1C(=O)Cc2cc(Nc3nc(N4CC[C@H](Nc5ccc6c(C7CCC(=O)NC7=O)nn(C)c6c5)[C@@H](F)C4)ncc3Cl)ccc21 (stereo partly drawn) [Example 42, 3-(6-(((3S,4S)-1-(5-chloro-4-((1-methyl-2-oxoindolin-5-yl)amino)pyrimidin-2-yl)-3-fluoropiperidin-4-yl)amino)-1-methyl-1H-indazol-3-yl)piperidine-2,6-dione] | 20 to 60
9 | CN1C(=O)Cc2cc(Nc3nc(N4CC[C@@H](Nc5ccc6c(C7CCC(=O)NC7=O)nn(C)c6c5)[C@@H](F)C4)ncc3Cl)ccc21 (stereo partly drawn) [Example 44, 3-(6-(((3S,4R)-1-(5-chloro-4-((1-methyl-2-oxoindolin-5-yl)amino)pyrimidin-2-yl)-3-fluoropiperidin-4-yl)amino)-1-methyl-1H-indazol-3-yl)piperidine-2,6-dione] | > 60
10 | CN1C(=O)Cc2cc(Nc3nc(N4CC[C@@H](Nc5ccc6c(C7CCC(=O)NC7=O)nn(C)c6c5)[C@H](F)C4)ncc3Cl)ccc21 (stereo partly drawn) [Example 45, 3-(6-(((3R,4R)-1-(5-chloro-4-((1-methyl-2-oxoindolin-5-yl)amino)pyrimidin-2-yl)-3-fluoropiperidin-4-yl)amino)-1-methyl-1H-indazol-3-yl)piperidine-2,6-dione] | 20 to 60
11 | CN1C(=O)Cc2cc(Nc3nc(N4CCC(Nc5ccc6c(C7CCC(=O)NC7=O)nn(C)c6c5)CC4)ncc3Cl)ccc21 (centres unmarked) [Example 52, 3-(6-((1-(5-chloro-4-((1-methyl-2-oxoindolin-5-yl)amino)pyrimidin-2-yl)piperidin-4-yl)amino)-1-methyl-1H-indazol-3-yl)piperidine-2,6-dione] | 20 to 60
12 | CN1C(=O)Cc2cc(Nc3nc(N4CC[C@@H](Nc5ccc6c(C7CCC(=O)NC7=O)nn(C)c6n5)[C@H](O)C4)ncc3Cl)ccc21 (stereo partly drawn) [Example 55, 3-(6-(((3R,4R)-1-(5-chloro-4-((1-methyl-2-oxoindolin-5-yl)amino)pyrimidin-2-yl)-3-hydroxypiperidin-4-yl)amino)-1-methyl-1H-pyrazolo[3,4-b]pyridin-3-yl)piperidine-2,6-dione] | 20 to 60
13 | C[C@@H]1CN(c2ncc(Cl)c(Nc3ccc4c(c3)C(F)(F)C(=O)N4C)n2)CC[C@H]1Nc1ccc2c(C3CCC(=O)NC3=O)nn(C)c2c1 (stereo partly drawn) [Example 56, 3-(6-(((3R,4R)-1-(5-chloro-4-((3,3-difluoro-1-methyl-2-oxoindolin-5-yl)amino)pyrimidin-2-yl)-3-methylpiperidin-4-yl)amino)-1-methyl-1H-indazol-3-yl)piperidine-2,6-dione] | < 20
14 | CN1C(=O)Cc2cc(Nc3nc(N4CC[C@@H](Nc5ccc6c(C7CCC(=O)NC7=O)nn(C)c6c5)[C@@H](CO)C4)ncc3Cl)ccc21 (stereo partly drawn) [Example 57, 3-[6-[[(3S,4R)-1-[5-Chloro-4-[(1-methyl-2-oxo-indolin-5-yl)amino]pyrimidin-2-yl]-3-(hydroxymethyl)-4-piperidyl]amino]-1-methyl-indazol-3-yl]piperidine-2,6-dione] | > 60

Continued, values first:

Row | Percent BCL6 remaining at maximal degradation (Ycon) [%] | Compound
15 | < 20 | C[C@H]1CN(c2ccc3c(C4CCC(=O)NC4=O)nn(C)c3c2)C[C@H](C)N1c1ncc(Cl)c(Nc2ccc3c(c2)CC(=O)N3C)n1 (stereo partly drawn) [Example 29, 3-(6-((3S,5S)-4-(5-chloro-4-((1-methyl-2-oxoindolin-5-yl)amino)pyrimidin-2-yl)-3,5-dimethylpiperazin-1-yl)-1-methyl-1H-indazol-3-yl)piperidine-2,6-dione]
16 | > 60 | CN1C(=O)Cc2cc(Nc3nc(N4CCCC(Nc5ccc6c(C7CCC(=O)NC7=O)nn(C)c6c5)CC4)ncc3Cl)ccc21 (centres unmarked) [Example 31, 3-(6-((1-(5-chloro-4-((1-methyl-2-oxoindolin-5-yl)amino)pyrimidin-2-yl)azepan-4-yl)amino)-1-methyl-1H-indazol-3-yl)piperidine-2,6-dione]
17 | > 60 | Cn1nc(C2CCC(=O)NC2=O)c2ccc(N3CCN(c4ncc(Cl)c(Nc5ccc6c(c5)CC(=O)N6)n4)CC3)cc21 (centres unmarked) [Example 34, 3-(6-(4-(5-chloro-4-((2-oxoindolin-5-yl)amino)pyrimidin-2-yl)piperazin-1-yl)-1-methyl-1H-indazol-3-yl)piperidine-2,6-dione]
18 | > 60 | CN1C(=O)Cc2cc(Nc3nc(N4CCC(Nc5ccc6c(C7CCC(=O)NC7=O)nn(C)c6c5)CC4)ncc3C#N)ccc21 (centres unmarked) [Example 36, 2-(4-((3-(2,6-dioxopiperidin-3-yl)-1-methyl-1H-indazol-6-yl)amino)piperidin-1-yl)-4-((1-methyl-2-oxoindolin-5-yl)amino)pyrimidine-5-carbonitrile]
19 | > 60 | CN1C(=O)Cc2cc(Nc3nc(N4CCN(c5ccc6c(C7CCC(=O)NC7=O)nn(C)c6c5)C(=O)C4)ncc3Cl)ccc21 (centres unmarked) [Example 37, 3-(6-(4-(5-chloro-4-((1-methyl-2-oxoindolin-5-yl)amino)pyrimidin-2-yl)-2-oxopiperazin-1-yl)-1-methyl-1H-indazol-3-yl)piperidine-2,6-dione]
20 | > 60 | CN1C(=O)Cc2cc(Nc3nc(NC4CCN(c5ccc6c(C7CCC(=O)NC7=O)nn(C)c6c5)CC4)ncc3Cl)ccc21 (centres unmarked) [Example 40, 3-(6-(4-((5-Chloro-4-((1-methyl-2-oxoindolin-5-yl)amino)pyrimidin-2-yl)amino)piperidin-1-yl)-1-methyl-1H-indazol-3-yl)piperidine-2,6-dione]
21 | > 60 | CN1C(=O)Cc2cc(Nc3nc(N4CC[C@H](Nc5ccc6c(C7CCC(=O)NC7=O)nn(C)c6c5)[C@H](F)C4)ncc3Cl)ccc21 (stereo partly drawn) [Example 43, 3-(6-(((3R,4S)-1-(5-Chloro-4-((1-methyl-2-oxoindolin-5-yl)amino)pyrimidin-2-yl)-3-fluoropiperidin-4-yl)amino)-1-methyl-1H-indazol-3-yl)piperidine-2,6-dione]
22 | > 60 | CN1C(=O)Cc2cc(Nc3nc(N4CC[C@@H](N(C)c5ccc6c(C7CCC(=O)NC7=O)nn(C)c6c5)[C@H](F)C4)ncc3Cl)ccc21 (stereo partly drawn) [Example 46, 3-[6-[[(3R,4R)-1-[5-Chloro-4-[(1-methyl-2-oxo-indolin-5-yl)amino]pyrimidin-2-yl]-3-fluoro-4-piperidyl]-methyl-amino]-1-methyl-indazol-3-yl]piperidine-2,6-dione]
23 | > 60 | CC1CCN(c2ncc(Cl)c(Nc3ccc4c(c3)CC(=O)N4C)n2)CCC1Nc1ccc2c(C3CCC(=O)NC3=O)nn(C)c2c1 (centres unmarked) [Example 47, 3-(6-((1-(5-chloro-4-((1-methyl-2-oxoindolin-5-yl)amino)pyrimidin-2-yl)-5-methylazepan-4-yl)amino)-1-methyl-1H-indazol-3-yl)piperidine-2,6-dione]
